# Laboratory results taken from patent publication US7208502B2, “Methods of treating conditions associated with an Edg-3 receptor” (Maniv Energy Capital, priority 2002, dated 2007).
# Entries after “also recorded” stand apart in the source; their conditions may differ.
# Assays:
# Edg-8 = molecular target: T1, Edg-8 (Homo sapiens, UniProt Q9H228); assay: Intracellular calcium assay, S1P-stimulated, HTC cells expressing Edg-8; format: cell-based; settings: concentrations as high as 20 µM
# T1 construct: expressed in transfected cells; host or cells: HTC rat hepatoma cells
# Edg-4 = molecular target: T2, Edg-4 (Homo sapiens, UniProt Q9HBW0); assay: Intracellular calcium assay, LPA-stimulated, HTC cells expressing Edg-4; format: cell-based; settings: concentrations as high as 20 µM
# T2 construct: expressed in transfected cells; host or cells: HTC rat hepatoma cells
# Histamine H1, Central = molecular target: T3, Histamine H1, Central (Cavia porcellus, UniProt P31389); assay: Radioligand binding assay, 3H Pyrilamine; parameters: species or system Guinea pig; settings: 10 μM; significance criteria ≧50% of max stimulation or inhibition
# T3 construct: from tissue; host or cells: guinea pig cerebellum
# Description: (§1) In order to test the selectivity of compounds, various enzyme assays as well as radioligand binding assays were performed using numerous non-Edg receptor targets as listed below.
# (§2) A radioligand binding assay was performed using adrenergic α1 according to the method of Greengrass and Bremner 1979, Eur. J. Pharmacol. 55:323–326. A radioligand binding assay was performed using adrenergic α2 according to the method of Boyajian and Leslie, 1987, J. Pharmacol. Exp. Ther. 241:1092–1098. A radioligand binding assay was performed using adrenergic β according to the method of Feve et al., 1994, Proc. Natl. Acad. Sci. USA 91:5677–5681. A radioligand binding assay was performed using angiotensin AT2 according to the method of Whitebread et al., 1991, Biochem. Biophys. Res. Comm. 181:1365–1371. A radioligand binding assay was performed using calcium channel Type L, dihydropyridine according to the method of Ehlert et al., 1982, Life Sci. 30:2191–2202. A radioligand binding assay was performed using dopamine D2L according to the method of Bunzo et al., 1988, Nature 336:783–787. A radioligand binding assay was performed using endothelin ETA according to the method of Mihara et al., 1994, J. Phrmacol. Exp Ther. 268:1122–1127. A radioligand binding assay was performed using histamine H1 Central according to the method of Hill et al., 1978, J. Neurochem. 31:997–1004. […]
# (§3) Quantitation Method: Radioligand Binding […]
# [1] = system: Muscarinic non-selective, Central; assay: Radioligand binding assay, 3H Quinuclidinyl benzilate; parameters: species or system Wistar rat; settings: 10 μM; significance criteria ≧50% of max stimulation or inhibition
# Description: as §1, §2, §3
# human Edg-3 receptors = molecular target: T4, human Edg-3 receptors (Homo sapiens, UniProt Q99500); assay: Intracellular calcium (FLIPR) assay, S1P-stimulated, HTC cells expressing Edg-3; format: cell-based; settings: HTC cells expressing human Edg-3 receptors; FIG. 1
# T4 construct: expressed in transfected cells; host or cells: HTC rat hepatoma cells
# Excerpt: Specific assays for Edg-3 receptor activity are known to those of skill in the art. For example, cells expressing Edg-3 receptors can be contacted with a membrane-permeant calcium sensitive dye such as Fluo-4 AM or a proprietary calcium dye loading kit (e.g., FLIPR Calcium Assay kit, Molecular Devices, Sunnyvale, Calif.). Intracellular calcium is capable of binding to the dye and emitting fluorescent radiation when illuminated at the appropriate wavelength. The cells can thus be illuminated an appropriate wavelength for the dye and any emitting light can be captured by a cooled CCD camera. Changes in fluorescence indicate changes in intracellular calcium resulting from the activation of an Edg-3 receptor. Such changes can be measured advantageously in whole cells in “real-time” (Berridge et al., Nature Reviews 2000, 1:11–21). […]
# […] such as Edg-3, couple to calcium effector pathways, and result in increases in intracellular calcium following receptor activation (An, 1998, J. Cell Biochem. Supp 30–31:147–157). This biological response lends itself to a very efficient, high-throughput screen using a Fluorescence Imaging Plate Reader (FLIPR; Molecular Devices, Sunnyvale, Calif.). The FLIPR system is a real-time, cell-based assay system with continuous fluorescence detection using a cooled CCD camera. […]
# Dopamine D2L = molecular target: T5, Dopamine D2L (Homo sapiens, UniProt P14416); assay: Radioligand binding assay, 3H Spiperone; settings: 10 μM; significance criteria ≧50% of max stimulation or inhibition
# T5 construct: expressed in transfected cells; host or cells: CHO cells
# Description: as §1, §2, §3
# [2] = system: Calcium Channel Type L, Dihydropyridine; assay: Radioligand binding assay, 3H Nitrendipine; parameters: species or system Wistar Rat; settings: 10 μM; significance criteria ≧50% of max stimulation or inhibition
# Description: as §1, §2, §3
# T4 sequence (Q99500 whole entry): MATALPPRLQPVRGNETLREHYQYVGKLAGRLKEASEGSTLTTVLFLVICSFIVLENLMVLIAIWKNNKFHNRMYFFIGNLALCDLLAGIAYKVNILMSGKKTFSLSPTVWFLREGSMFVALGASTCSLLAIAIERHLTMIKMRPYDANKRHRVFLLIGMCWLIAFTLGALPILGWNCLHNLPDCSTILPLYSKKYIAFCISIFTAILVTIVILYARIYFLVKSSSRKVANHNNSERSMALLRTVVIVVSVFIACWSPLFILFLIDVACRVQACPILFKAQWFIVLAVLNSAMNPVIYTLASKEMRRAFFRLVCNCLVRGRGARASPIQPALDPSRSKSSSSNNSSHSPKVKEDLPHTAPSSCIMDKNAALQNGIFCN
# T2 sequence (Q9HBW0 whole entry): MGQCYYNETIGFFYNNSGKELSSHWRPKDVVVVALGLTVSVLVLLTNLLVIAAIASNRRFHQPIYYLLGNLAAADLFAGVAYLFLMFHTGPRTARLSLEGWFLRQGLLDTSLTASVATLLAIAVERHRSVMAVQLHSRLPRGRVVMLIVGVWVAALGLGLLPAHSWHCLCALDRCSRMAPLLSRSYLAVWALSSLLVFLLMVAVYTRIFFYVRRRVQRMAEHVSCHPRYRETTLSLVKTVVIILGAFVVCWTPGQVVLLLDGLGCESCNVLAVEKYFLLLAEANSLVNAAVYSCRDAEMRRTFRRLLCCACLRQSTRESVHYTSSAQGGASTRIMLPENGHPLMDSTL
# T3 sequence (P31389 whole entry): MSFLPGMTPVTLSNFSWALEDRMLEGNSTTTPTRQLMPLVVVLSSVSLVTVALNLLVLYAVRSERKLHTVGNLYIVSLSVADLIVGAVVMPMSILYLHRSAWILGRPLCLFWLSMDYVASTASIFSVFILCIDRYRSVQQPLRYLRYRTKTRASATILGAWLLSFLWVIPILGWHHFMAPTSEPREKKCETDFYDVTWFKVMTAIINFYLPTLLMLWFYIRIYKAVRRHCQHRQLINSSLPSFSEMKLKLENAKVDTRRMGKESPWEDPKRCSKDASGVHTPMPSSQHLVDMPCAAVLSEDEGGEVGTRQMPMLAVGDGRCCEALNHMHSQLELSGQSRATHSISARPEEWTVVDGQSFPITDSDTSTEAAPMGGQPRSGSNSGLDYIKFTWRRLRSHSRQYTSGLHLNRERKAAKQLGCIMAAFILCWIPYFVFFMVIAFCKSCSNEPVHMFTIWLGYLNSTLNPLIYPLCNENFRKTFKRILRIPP
# T1 sequence (Q9H228 whole entry): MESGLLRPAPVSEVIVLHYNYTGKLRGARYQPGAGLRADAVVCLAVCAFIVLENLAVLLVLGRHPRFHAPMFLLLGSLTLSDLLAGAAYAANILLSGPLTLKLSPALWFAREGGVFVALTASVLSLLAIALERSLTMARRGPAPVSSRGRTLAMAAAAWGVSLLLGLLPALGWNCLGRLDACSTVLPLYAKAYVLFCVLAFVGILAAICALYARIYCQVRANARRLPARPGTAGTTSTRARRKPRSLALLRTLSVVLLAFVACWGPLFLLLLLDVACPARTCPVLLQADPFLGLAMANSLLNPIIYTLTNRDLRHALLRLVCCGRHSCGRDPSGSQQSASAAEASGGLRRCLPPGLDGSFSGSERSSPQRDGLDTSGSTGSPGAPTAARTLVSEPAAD
# T5 sequence (P14416 whole entry): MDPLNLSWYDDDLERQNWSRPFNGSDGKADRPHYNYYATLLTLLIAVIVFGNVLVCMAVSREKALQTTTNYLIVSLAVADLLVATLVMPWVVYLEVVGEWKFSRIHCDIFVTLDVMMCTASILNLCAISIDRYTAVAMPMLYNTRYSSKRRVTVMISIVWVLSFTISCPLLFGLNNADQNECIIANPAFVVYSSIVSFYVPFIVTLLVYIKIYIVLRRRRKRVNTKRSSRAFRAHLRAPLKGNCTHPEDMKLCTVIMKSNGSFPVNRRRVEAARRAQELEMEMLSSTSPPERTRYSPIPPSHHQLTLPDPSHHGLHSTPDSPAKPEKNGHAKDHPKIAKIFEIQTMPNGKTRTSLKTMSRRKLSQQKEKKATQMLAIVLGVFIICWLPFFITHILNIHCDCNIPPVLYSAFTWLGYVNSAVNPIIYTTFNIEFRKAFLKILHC
structure (smiles),measurement,setting,value
"Cc1c(-c2ccccc2)nc2ccccc2c1C(=O)NCc1ccc(F)cc1 [Compound 101, 3-methyl-2-phenyl-quinoline-4-carboxylic acid 4-fluoro-benzylamide]","inhibition of S1P-stimulated calcium increases, Edg-8",Edg-8,did not inhibit
same,"inhibition of LPA-stimulated calcium increases, Edg-4",Edg-4,did not inhibit
same,"activity in standard binding assay, Histamine H1, Central","Histamine H1, Central",no activity
same,"activity in standard binding assay, Muscarinic non-selective, Central",[1],no activity
same,inhibition of Edg-3 stimulated S1P responses (Edg-3 receptors),human Edg-3 receptors,demonstrate inhibition; also recorded: specifically inhibited
same,"activity in standard binding assay, Dopamine D2L",Dopamine D2L,no activity
same,"activity in standard binding assay, Calcium Channel Type L, Dihydropyridine",[2],no activity
